According to patent US20250041303A1, “COMBINATION THERAPY FOR CANCER TREATMENT” (INSTITUTE FOR CANCER RESEARCH D/B/A THE RESEARCH INSTITUTE …, priority 2021, published 2025):

Tests used:
[1] = system: BET proteins (BRD2, BRD3 or BRD4); assay: Western blot of BET protein degradation, parental vs degrader-resistant cells; assay type: cell-based; details: tariquidar 0.1 μM, 24 hours; A1847 dBET6-R, SUM159 MZ1-R (maintained in PROTAC)
Protocol: (§1) Samples were harvested in MIB lysis buffer (50 mM HEPES (pH 7.5), 0.5% Triton X-100, 150 mM NaCl, 1 mM EDTA, 1 mM EGTA, 10 mM sodium fluoride, 2.5 mM sodium orthovanadate, 1× protease inhibitor cocktail (Roche), and 1% each of phosphatase inhibitor cocktails 2 and 3 (Sigma)). Particulate was removed by centrifugation of lysates at 21,000 rpm for 15 minutes at 4° C. Lysates were subjected to SDS-PAGE chromatography and transferred to PVDF membranes before western blotting with primary antibodies. […] Secondary HRP-anti-rabbit and HRP-anti-mouse were obtained from ThermoFisher Scientific. SuperSignal West Pico and Femto Chemiluminescent Substrates (Thermo) were used to visualize blots.

[2] = biological target: CDK9 (Homo sapiens, UniProt P50750); assay: Western blot of CDK9 degradation, A1847 parental vs Thal-R cells; assay type: cell-based; details: tariquidar 0.1 μM, 24 hours; A1847 Thal-R
Protocol: as §1

[3] = biological target: T1, KRASG12C (Homo sapiens, UniProt P01116, G12C); assay: Western blot of KRASG12C and effector signaling in SW1463 cells; assay type: cell-based; details: SW1463; lapatinib 5 μM or tariquidar 0.01 μM, 48 hours
T1 construct: endogenous in cells; host or cells: SW1463
Protocol: as §1

[4] = system: SW1463 cells; assay: CellTiter-Glo viability with Bliss drug synergy analysis in SW1463 cells; assay type: cell-based
[5] = system: A1847 or SUM159 cells; assay: Colony formation assay (14 days, crystal violet); details: SUM159 cells expressing Flag-MDR1, MZ1 0.1 μM, with or without tariquidar 0.1 μM
[6] = system: A1847 and SUM159 parental and degrader-resistant cells; assay: CellTiter-Glo cell viability, parental vs degrader-resistant cells; details: increasing concentrations; A1847 dBET6-R, Thal-R, MZ1-R and SUM159 MZ1-R
[7] = system: OVCAR3, HCT116, and MOLT4 cells; assay: CellTiter-Glo cell viability, parental vs MZ1 chronically exposed cells; details: MZ1-R OVCAR3 and HCT116 vs parental
[8] = system: SW837 cells; assay: CellTiter-Glo viability with Bliss drug synergy analysis in SW837 cells
[9] = biological target: MDR1 (Homo sapiens, UniProt P08183); assay: Rhodamine 123 efflux assay in degrader-resistant cells; assay type: cell-based; set-up: endogenous in cells; host or cells: A1847 parental, dBET6-R, Thal-R; SUM159 parental, MZ1-R; details: A1847 dBET6-R, Thal-R or MZ1-R SUM159 cells compared to parental cells
Protocol: Efflux assay was performed according to manufacturer's protocol (Millipore Sigma #ECM910). Cells were resuspended in cold efflux buffer and incubated with Rhodamine 123 for 1 hour on ice. Cells were centrifuged and treated in warm efflux buffer with DMSO or drug for 30-60 minutes, washed with cold PBS, and effluxed dye was quantified with a plate reader at an excitation wavelength of 485 nm and an emission wavelength of 530 nm.

MDR1, sequence (P08183 whole entry): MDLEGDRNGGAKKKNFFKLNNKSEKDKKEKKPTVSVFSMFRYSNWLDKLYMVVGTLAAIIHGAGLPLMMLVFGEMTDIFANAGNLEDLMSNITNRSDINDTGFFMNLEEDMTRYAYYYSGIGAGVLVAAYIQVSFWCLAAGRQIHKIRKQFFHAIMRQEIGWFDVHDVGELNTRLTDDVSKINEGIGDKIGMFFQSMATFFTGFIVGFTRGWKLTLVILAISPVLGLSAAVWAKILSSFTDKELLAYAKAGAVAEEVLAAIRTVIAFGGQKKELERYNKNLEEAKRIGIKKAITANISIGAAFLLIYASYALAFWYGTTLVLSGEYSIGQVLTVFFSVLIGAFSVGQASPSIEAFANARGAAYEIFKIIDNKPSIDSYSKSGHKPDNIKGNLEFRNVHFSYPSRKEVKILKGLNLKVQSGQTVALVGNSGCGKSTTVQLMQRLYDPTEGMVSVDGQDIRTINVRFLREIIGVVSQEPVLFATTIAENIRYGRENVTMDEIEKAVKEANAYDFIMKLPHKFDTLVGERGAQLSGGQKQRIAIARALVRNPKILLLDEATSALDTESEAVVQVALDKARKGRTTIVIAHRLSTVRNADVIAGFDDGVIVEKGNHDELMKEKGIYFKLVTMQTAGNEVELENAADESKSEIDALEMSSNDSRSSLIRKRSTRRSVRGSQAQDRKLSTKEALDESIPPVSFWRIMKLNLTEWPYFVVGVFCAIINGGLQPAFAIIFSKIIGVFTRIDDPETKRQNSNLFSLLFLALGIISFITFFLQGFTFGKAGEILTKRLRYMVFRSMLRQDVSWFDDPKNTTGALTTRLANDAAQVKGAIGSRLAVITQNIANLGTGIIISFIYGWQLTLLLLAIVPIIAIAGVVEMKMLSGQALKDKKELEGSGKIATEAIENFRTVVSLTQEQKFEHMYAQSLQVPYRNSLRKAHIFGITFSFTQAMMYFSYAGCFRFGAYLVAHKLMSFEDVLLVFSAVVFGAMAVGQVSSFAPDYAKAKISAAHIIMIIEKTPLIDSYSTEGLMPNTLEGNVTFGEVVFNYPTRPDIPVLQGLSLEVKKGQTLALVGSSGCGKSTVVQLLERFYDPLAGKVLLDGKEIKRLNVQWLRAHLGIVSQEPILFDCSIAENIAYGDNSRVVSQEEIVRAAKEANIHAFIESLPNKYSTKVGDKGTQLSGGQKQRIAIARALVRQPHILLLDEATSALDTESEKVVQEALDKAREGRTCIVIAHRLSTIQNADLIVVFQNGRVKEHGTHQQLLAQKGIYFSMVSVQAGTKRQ
CDK9, sequence (P50750 whole entry): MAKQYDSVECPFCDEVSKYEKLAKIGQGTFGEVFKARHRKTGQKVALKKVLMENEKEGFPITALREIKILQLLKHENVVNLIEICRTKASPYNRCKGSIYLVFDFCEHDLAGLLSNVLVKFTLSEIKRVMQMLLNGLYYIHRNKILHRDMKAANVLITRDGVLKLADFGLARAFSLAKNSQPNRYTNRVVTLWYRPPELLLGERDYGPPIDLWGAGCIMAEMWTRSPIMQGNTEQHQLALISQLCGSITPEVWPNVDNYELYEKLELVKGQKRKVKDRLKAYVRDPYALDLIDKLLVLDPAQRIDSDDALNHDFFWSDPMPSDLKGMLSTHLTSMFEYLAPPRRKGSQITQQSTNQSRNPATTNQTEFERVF
CDK9, sequence (O60563 whole entry partner): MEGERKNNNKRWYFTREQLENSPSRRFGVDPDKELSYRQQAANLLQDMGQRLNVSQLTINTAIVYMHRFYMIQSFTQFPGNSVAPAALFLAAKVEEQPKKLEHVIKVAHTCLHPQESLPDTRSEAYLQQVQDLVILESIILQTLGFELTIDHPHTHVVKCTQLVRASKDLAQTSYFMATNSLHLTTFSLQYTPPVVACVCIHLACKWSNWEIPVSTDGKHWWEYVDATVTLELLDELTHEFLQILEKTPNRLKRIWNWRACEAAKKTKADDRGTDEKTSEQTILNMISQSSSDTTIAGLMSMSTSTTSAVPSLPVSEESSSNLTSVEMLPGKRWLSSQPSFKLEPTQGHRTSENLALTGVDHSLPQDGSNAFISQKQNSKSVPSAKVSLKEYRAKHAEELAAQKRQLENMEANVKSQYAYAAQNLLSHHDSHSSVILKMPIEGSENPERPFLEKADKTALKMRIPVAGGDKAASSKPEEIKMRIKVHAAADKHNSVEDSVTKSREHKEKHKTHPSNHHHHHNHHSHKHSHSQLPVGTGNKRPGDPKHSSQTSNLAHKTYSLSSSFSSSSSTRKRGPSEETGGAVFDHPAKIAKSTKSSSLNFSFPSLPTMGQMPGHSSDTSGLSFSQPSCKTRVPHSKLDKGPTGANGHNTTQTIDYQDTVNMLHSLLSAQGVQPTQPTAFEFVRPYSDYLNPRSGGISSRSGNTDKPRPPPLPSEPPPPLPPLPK

In the case of `COc1cc2c(cc1OC)CN(CCc1ccc(NC(=O)c3cc(OC)c(OC)cc3NC(=O)c3cnc4ccccc4c3)cc1)CC2` [tariquidar], the “degradation of BET proteins in degrader-resistant cells on MDR1 inhibition” value [1] is reported as “restored degradation of BET proteins or CDK9”, the “degradation of CDK9 in degrader-resistant cells on MDR1 inhibition” value [2] is reported as “restored degradation of BET proteins or CDK9” and the “PROTAC-mediated degradation of KRASG12C on combining with LC-2” value [3] is reported as “improved PROTAC-mediated degradation of KRASG12C reducing protein levels”. For the same compound, the “phosphorylation of MEK and ERK on combining with LC-2” value [3] was “reduced phosphorylation of MEK and ERK”, the “drug synergy with LC-2” value [4] was “marginal synergy” and the “colony formation with forced expression of Flag-MDR1” value [5] was “could be blocked by tariquidar-treatment”. The “sensitivity of degrader-resistant cells vs parental cells (cell viability)” value [6] was “more sensitive”, the “sensitivity of MZ1-resistant cells (cell viability)” value [7] was “increased sensitivity” and the “drug synergy with LC-2” value [8] was “marginal synergy”. For the same compound, the “MDR1 drug efflux pump activity (efflux of Rhodamine 123)” value [9] was “reduced MDR1 drug efflux pump activity”.
